According to PMC8213057, “Targeting ALK2: An Open Science Approach to Developing Therapeutics for the Treatment of Diffuse Intrinsic Pontine Glioma” (Journal of Medicinal Chemistry, 2020):

How the values were obtained:
PHKg2 = molecular target: T1, PHKg2 (Homo sapiens, UniProt P15735); test: biochemical; details: read-out: % enzyme activity, 1 μM; Run 1, Run 2
T1 sequence (P15735 1-406): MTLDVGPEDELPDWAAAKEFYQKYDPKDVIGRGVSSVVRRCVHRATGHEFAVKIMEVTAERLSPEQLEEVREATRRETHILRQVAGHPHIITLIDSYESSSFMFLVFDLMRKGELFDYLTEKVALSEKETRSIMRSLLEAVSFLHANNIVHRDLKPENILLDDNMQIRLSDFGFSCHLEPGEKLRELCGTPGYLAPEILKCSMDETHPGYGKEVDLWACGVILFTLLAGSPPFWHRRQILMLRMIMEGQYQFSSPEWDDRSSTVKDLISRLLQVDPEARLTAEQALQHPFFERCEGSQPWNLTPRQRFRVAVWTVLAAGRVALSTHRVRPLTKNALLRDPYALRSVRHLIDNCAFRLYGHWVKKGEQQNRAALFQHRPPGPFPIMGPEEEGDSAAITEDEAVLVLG

ARK5/NUAK1 = molecular target: T2, ARK5/NUAK1 (Homo sapiens, UniProt O60285); test: biochemical; details: read-out: % enzyme activity, 1 μM; Run 1, Run 2
T2 sequence (O60285 1-661): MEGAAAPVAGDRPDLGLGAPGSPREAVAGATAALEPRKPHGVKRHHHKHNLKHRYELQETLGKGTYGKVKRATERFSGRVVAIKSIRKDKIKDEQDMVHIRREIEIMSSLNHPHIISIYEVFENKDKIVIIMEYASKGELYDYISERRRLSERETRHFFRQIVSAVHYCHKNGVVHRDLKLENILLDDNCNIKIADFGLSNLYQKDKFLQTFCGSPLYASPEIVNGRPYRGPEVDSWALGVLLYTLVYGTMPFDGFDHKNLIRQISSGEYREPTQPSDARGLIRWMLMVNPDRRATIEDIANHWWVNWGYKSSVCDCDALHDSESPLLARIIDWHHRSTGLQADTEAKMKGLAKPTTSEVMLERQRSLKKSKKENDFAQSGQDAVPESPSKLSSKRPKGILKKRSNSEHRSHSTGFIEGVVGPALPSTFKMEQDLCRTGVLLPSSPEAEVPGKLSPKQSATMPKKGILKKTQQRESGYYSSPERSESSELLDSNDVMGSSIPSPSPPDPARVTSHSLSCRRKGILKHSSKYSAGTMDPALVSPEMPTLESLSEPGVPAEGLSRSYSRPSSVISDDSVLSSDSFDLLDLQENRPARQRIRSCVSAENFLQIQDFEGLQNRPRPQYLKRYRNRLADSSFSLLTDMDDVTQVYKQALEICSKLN

LATS2 = molecular target: T3, LATS2 (Homo sapiens, UniProt Q9NRM7); details: 1 μM; Run 1, Run 2
T3 sequence (Q9NRM7 1-1088): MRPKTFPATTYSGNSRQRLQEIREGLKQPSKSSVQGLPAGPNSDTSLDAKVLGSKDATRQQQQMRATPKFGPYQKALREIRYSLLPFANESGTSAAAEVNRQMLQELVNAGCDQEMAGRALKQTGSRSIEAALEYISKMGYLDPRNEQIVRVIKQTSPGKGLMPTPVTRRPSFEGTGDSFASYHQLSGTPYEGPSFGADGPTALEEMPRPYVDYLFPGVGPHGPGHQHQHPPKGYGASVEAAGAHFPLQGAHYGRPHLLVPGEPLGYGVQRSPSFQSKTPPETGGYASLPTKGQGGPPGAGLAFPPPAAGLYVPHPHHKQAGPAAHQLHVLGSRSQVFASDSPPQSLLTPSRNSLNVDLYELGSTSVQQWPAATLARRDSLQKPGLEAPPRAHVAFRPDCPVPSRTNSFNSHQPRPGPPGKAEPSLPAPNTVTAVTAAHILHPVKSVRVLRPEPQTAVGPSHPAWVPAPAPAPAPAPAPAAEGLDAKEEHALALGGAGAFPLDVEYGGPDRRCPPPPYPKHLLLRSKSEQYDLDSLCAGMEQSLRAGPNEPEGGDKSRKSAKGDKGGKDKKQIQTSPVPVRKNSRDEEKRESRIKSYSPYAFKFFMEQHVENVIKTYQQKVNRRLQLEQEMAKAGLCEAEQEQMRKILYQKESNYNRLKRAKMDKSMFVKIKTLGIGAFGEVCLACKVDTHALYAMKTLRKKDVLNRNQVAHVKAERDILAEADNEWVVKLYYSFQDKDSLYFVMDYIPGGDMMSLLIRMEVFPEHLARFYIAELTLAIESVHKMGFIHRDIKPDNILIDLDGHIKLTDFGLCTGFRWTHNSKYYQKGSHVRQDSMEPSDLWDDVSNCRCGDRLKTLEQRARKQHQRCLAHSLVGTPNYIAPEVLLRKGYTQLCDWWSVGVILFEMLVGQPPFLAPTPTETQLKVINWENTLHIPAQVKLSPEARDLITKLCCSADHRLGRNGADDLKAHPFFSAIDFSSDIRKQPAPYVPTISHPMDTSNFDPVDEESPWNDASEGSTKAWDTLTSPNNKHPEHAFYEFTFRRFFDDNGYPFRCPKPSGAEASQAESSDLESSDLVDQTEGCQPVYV

MARK4 = molecular target: T4, MARK4 (Homo sapiens, UniProt Q96L34); details: 1 μM; Run 1, Run 2
T4 sequence (Q96L34 1-752): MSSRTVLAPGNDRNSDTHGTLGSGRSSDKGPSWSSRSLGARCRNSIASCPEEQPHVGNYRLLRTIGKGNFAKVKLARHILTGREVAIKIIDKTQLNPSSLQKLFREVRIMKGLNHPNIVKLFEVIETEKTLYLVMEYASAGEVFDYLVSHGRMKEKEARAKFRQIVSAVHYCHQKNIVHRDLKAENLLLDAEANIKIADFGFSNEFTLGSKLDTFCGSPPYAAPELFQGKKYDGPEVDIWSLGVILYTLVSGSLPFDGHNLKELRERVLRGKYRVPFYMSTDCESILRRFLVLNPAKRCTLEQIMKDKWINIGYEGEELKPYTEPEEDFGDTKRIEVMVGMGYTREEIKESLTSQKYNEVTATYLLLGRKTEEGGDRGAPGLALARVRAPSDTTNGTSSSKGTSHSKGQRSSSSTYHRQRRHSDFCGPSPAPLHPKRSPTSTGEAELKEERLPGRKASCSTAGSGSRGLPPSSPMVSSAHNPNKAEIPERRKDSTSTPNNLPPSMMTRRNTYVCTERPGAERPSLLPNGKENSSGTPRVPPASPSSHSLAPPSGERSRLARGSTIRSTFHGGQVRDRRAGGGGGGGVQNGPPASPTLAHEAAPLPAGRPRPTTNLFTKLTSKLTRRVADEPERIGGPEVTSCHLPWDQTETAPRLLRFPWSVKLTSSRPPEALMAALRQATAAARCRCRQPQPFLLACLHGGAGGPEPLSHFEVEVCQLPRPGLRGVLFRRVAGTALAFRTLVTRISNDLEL

COc1cc(-c2cncc(-c3ccc(N4CCN(C)CC4)cc3)c2C)cc(F)c1C(N)=O [Compound 26a, 2-Fluoro-6-methoxy-4-(4-methyl-5-(4-(4-methylpiperazin-1-yl)phenyl)pyridin-3-yl)benzamide]
remaining activity at 1 µM (PHKg2): 94.9% | remaining activity at 1 µM (ARK5/NUAK1): 97.6% | % enzyme activity (LATS2): 104.67% | % enzyme activity (MARK4): 82.62%

COc1cc(-c2cncc(-c3ccc(N4C[C@@H](C)N(C)[C@@H](C)C4)cc3)c2C)cc(F)c1C(N)=O [Compound 26c, 2-Fluoro-6-methoxy-4-(4-methyl-5-(4-((3R,5S)-3,4,5-trimethylpiperazin-1-yl)phenyl)pyridin-3-yl)benzamide]
remaining activity at 1 µM (PHKg2): 96.7% | remaining activity at 1 µM (ARK5/NUAK1): 96% | % enzyme activity (LATS2): 100.36% | % enzyme activity (MARK4): 95.76%
